Earlier results, collected in patent US12622943B2, “Composition for relieving woman menopausal symptom comprising a mixed extract of hop and citrus peel and method for treating or alleviating menopausal symptom using the same” (LG HOUSEHOLD & HEALTH CARE LTD., priority 2022, dated 2026).

Test system: uterine weight
Details: administered to animals at high doses

In the case of `CC(C)=CCc1c(O)cc(O)c2c1O[C@H](c1ccc(O)cc1)CC2=O` [8-Prenylnaringenin], the uterine weight is listed as “increased”.
